Patent US9200017B2, “Multimodal imaging of fibrin” (The General Hospital Corporation, priority 2009, dated 2015)
Positions of bridges follow the written chain, without caps; N, C: chain ends. Non-standard residues stand in square brackets, D forms with d. Residues, ends and D or L forms follow the SMILES beside them. *: point of attachment. DOTA(p-xylylenediamine) = O=C(O)CN1CCN(CC(=O)O)CCN(CC(=O)NCc2ccc(CN*)cc2)CCN(CC(=O)O)CC1; X1 = O=C1OC2(c3ccc(O)cc3Oc3cc(O)ccc32)c2ccc(NC(=S)NCc3ccc(CN*)cc3)cc21; FITC = O=C1OC2(c3ccc(O)cc3Oc3cc(O)ccc32)c2ccc(NC(=S)*)cc21; DOTA = O=C(O)CN1CCN(CC(=O)O)CCN(CC(=O)*)CCN(CC(=O)O)CC1; Tyr(3-Cl) = N[C@@H](Cc1ccc(O)c(Cl)c1)C(=O)O; Hyp = O=C(O)[C@@H]1C[C@@H](O)CN1; Ahx = NCCCCCC(=O)O

Key:
Human fibrin = biological target: T1, Human fibrin (Homo sapiens, UniProt P02671+P02675+P02679); test: Binding to human fibrin, dried fibrin microtiter plate, stoichiometric binding model; conditions: dried human fibrin about 2.5 mg/mL, compound 0.1 to 50 μM, 2 h; read-out: Kd, first binding event
T1 construct: thrombin cleaves fibrinopeptides on fibrinogen resulting in an end-to-end polymerization to give the polymer fibrin; Human fibrinogen (American Diagnostica) was dialyzed; purchased American Diagnostica
T1 sequence (P02671 36-629 limits assumed): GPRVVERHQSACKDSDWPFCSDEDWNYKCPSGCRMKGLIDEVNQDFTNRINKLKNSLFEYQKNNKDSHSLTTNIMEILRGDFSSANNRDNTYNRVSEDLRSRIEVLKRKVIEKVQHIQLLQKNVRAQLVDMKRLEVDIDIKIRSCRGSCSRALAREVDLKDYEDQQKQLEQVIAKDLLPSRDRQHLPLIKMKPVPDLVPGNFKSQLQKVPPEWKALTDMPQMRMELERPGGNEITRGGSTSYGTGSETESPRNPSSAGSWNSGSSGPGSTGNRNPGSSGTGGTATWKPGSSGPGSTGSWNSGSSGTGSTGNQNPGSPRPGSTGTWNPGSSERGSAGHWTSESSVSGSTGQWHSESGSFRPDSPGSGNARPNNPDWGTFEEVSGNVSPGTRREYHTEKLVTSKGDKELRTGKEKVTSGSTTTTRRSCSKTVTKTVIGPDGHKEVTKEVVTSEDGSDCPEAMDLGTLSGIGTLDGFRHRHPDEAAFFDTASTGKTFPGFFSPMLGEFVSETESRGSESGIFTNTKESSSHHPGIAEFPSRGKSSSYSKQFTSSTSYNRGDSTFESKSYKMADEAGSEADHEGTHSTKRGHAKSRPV
T1 sequence (P02675 45-491 limits assumed): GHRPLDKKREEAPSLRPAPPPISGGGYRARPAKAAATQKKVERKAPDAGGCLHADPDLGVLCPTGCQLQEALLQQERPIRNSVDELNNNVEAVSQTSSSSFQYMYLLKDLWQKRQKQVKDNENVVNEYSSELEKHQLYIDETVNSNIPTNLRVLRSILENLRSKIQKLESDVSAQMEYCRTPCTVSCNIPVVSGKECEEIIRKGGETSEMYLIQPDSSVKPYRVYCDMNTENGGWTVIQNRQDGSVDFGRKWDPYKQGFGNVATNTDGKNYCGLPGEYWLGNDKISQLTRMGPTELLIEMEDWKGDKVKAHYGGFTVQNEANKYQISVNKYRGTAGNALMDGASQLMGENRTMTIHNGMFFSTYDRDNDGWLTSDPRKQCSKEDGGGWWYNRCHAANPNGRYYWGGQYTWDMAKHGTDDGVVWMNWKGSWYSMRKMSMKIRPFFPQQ
T1 sequence (P02679 27-437 isoform P02679-2 limits assumed): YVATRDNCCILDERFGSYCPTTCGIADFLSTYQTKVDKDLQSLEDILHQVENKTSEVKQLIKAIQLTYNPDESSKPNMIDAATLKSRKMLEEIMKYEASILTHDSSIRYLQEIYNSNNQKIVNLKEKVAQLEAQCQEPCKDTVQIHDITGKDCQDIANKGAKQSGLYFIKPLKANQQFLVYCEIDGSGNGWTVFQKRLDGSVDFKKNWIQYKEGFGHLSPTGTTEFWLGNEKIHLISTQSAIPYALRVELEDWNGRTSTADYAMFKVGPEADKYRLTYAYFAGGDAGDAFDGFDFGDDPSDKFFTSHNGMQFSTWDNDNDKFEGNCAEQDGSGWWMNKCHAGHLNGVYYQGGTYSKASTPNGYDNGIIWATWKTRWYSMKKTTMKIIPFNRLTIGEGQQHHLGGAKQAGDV
Method: Binding can also be assessed by a dried fibrin assay. Here, purified fibrinogen (2.5 mg/mL; 7 μM fibrin) is clotted with thrombin and dried to a thin film in wells of a microtiter plate. The resulting clots bind to the plate without loss of protein. The clots are rehydrated with buffer containing known concentrations of peptide. After incubation at 37° C. for 2 hr, the concentration of peptide in the supernatant ([peptide]free) is determined (e.g. by HPLC or if the peptide is labeled with a fluorophore by fluorescence, or if labeled by a radionuclide concentration is determined by radioactivity). The concentration of fibrin-bound peptide ([peptide]bound) is calculated by subtraction ([peptide]bound)=[peptide]total−[peptide]free). A dissociation constant (Kd) for fibrin binding can be determined by fitting a plot of [peptide]bound versus [peptide]free to either a stoichiometric (see e.g. Nair et al., Angew Chem Int Ed 2008 47:4918-21) or equivalent binding sites model (see e.g. Overoye-Chan et al. J Am Chem Soc 2008 130:6025-39). […]
Solutions of compound ranging from 0.1 to 50 μM were added to each of the wells of the dried fibrin microtiter plate, and the plate was shaken for 2 h. After incubation, solution was removed and the concentration of unbound compound was determined from its radioactivity or by ICP-MS. […]

fibrin gel [1] = test: MR phantom study at 1.5 T in fibrinogen solution and fibrin gel; conditions: 25 μM Gd in 5 mg/mL fibrin gel, T1-weighted
Method: Fibrinogen (fgn) (50 mg, American Diagnostica) was dissolved in 1 mL of TBS (50 mM Tris, 150 mM sodium chloride, pH 7.4) and was dialyzed against TBS with 5 mM sodium citrate. The concentration of the resulting fibrinogen solution was 8.8 mg/mL based on the absorbance at 280 nm where 1 mg/mL fgn has an optical density of 1.512 for a 1 cm path length. Solutions were prepared by diluting stock solutions of gadolinium probe and fgn to final solutions of 25 μM Gd and 5 mg/mL fgn. Gadolinium concentrations were determined by ICP-MS. Fibrin gels were prepared by adding CaCl2 and thrombin to a final concentration of 7 mM and 4 U/mL, respectively. After briefly mixing the CaCl2 and thrombin, the solutions were allowed to gel/clot for 30 minutes. After fibrin (fbn) formation was complete, the clots were pushed to the wall of the tube with a pipet tip. A total of 6×0.5 mL phantoms were prepared in 1 mL centrifuge tubes: A) pure water; B) 5 mg/mL fibrinogen; C) [Gd(HP-DO3A)] at 25 μM in 5 mg/mL fgn; D) [Gd(HP-DO3A)] at 25 μM in 5 mg/mL fbn gel; E) GdDOTA-cyclic-FBP-p-XD-FITC (compound 17) at 25 μM in 5 mg/mL fgn; F) GdDOTA-cyclic-FBP-p-XD-FITC (compound 17) at 25 μM in 5 mg/mL fbn gel.
All 6 phantoms were simultaneously imaged at room temperature at 1.5 T with a clinical MRI. T1-weighted gradient echo images were acquired with repetition time TR=9.2 ms, echo time TE=1.9 ms, flip angle=25°.

fibrin gel [2] = biological target: T2, fibrin gel (Homo sapiens, UniProt P02671+P02675+P02679); test: Phantom study with fluorescence imaging in fibrinogen solution and fibrin gel; conditions: 50 nM in 2 mg/mL fibrin gel
T2 construct: thrombin cleaves fibrinopeptides on fibrinogen resulting in an end-to-end polymerization to give the polymer fibrin; Fibrin is a fibrillar protein derived from the soluble plasma protein fibrinogen
T2 sequence (P02671 36-629 limits assumed): T1 sequence (P02671 36-629 limits assumed)
T2 sequence (P02675 45-491 limits assumed): T1 sequence (P02675 45-491 limits assumed)
T2 sequence (P02679 27-437 isoform P02679-2 limits assumed): T1 sequence (P02679 27-437 isoform P02679-2 limits assumed)
Method: A 10 mM solution of fluorescein was prepared in ethanol by adding 0.0113 g of fluorescein to 3 mL EtOH. This solution was diluted in water to prepare a 9.99 μM solution. Also, a dilute solution of GdDOTA-cyclic-FBP-p-XD-FITC was prepared with a final concentration of 8.55 μM. Four phantoms were prepared in 1 mL glass tubes. Each phantom contained fibrinogen at a final concentration of 2 mg/mL, 50 pmol of GdDOTA-cyclic-FBP-p-XD-FITC or fluorescein, at a total volume of 1 mL. In two of the phantoms, fibrin gels were prepared by adding CaCl2 and thrombin to a final concentration of 7 mM and 4 U/mL, respectively. Once the clots had formed, the mixture was centrifuged and the clots settled to the bottom. The 4 phantoms were labeled: A) GdDOTA-cyclic-FBP-p-XD-FITC in fgn; B) GdDOTA-cyclic-FBP-p-XD-FITC in fbn gel; C) fluorescein in fbn gel D) fluorescein in fgn. The phantoms were imaged with an IVIS Spectrum imager.

fibrin gel [3] = biological target: T2, fibrin gel; test: Phantom study with PET in fibrinogen solution and fibrin gel; conditions: 2 mg/mL fibrin gel, 150 nCi, 2.3 nmol, 21° C.
Method: ^64CuDOTA was prepared by reacting 200 μCi of ^64CuCl2 with DOTA ligand (50 nmol) in 200 μL water at pH 6.5. The pH of the solution was maintained at 6.5 and the reaction was stirred at 50° C. for 30 min. The solution was then passed through a cation-exchange resin. The resin was washed with water and the total final volume was 600 μL.
Six phantoms were prepared in 4 mL glass culture tubes. Each phantom contained fibrinogen (fgn) at a final concentration of 2 mg/mL, 2.3 nmol of peptide or DOTA, a total volume of 2 mL, and a total activity of 150 nCi. In 3 of the phantoms, Fibrin gels (fbn) were prepared by adding CaCl2 and thrombin to a final concentration of 7 mM and 4 U/mL, respectively. Once the clots had formed, the mixture was centrifuged and the clots settled to the bottom. […]
The 6 tubes were placed in a holder with each tube equidistant from the isocenter and PET data was collected for 15 minutes. […] Each of the 32 PET detector modules consists of six 12×12 LSO crystal arrays read out by a 3×3 array of APDs (Hamamatsu 8664-55, Japan). […] The emission data recorded in list-mode format were sorted in the line of response space and compressed axially in the sinogram space for fast reconstruction. The normalization was calculated from a 64-hour scan of a plane-source rotated in the FOV. […]

| Kd (Human fibrin) | Fluorescence intensity distribution between fibrin clot and liquid (fibrin gel [2]) | Structure (SMILES) | MR signal distribution between clotted fibrin and supernatant (fibrin gel [1]) | PET activity distribution between fibrin clot and liquid above the clot (fibrin gel [3]) |
| --- | --- | --- | --- | --- |
| 900 ± 300 nM |  | CC[C@H](C)[C@H](NC(=O)[C@H](Cc1ccc(O)cc1)NC(=O)[C@@H]1CSSC[C@H](NC(=O)[C@@H](CCC(=O)O)NC(=O)[C@H](Cc2ccc(O)cc2)NC(=O)CCCCCNC(=S)Nc2ccc3c(c2)C(=O)OC32c3ccc(O)cc3Oc3cc(O)ccc32)C(=O)N2C[C@H](O)C[C@H]2C(=O)N[C@@H](Cc2ccc(O)c(Cl)c2)C(=O)NCC(=O)N[C@@H](CC(C)C)C(=O)N1)C(=O)N[C@@H](CCC(N)=O)C(=O)NCc1ccc(CNC(=O)CN2CCN(CC(=O)O)CCN(CC(=O)O)CCN(CC(=O)O)CC2)cc1 [Compound 11, FITC-hexyl-cyclic-FBP-p-XD-DOTA-Gd] ({FITC-Ahx}-Y[dE]C[Hyp][Tyr(3-Cl)]GLCYIQ-{DOTA(p-xylylenediamine)}; disulfide 3-8) |  |  |
| 800 ± 300 nM | localizes in the fibrin clot | CC[C@H](C)[C@H](NC(=O)[C@H](Cc1ccc(O)cc1)NC(=O)[C@@H]1CSSC[C@H](NC(=O)[C@@H](CCC(=O)O)NC(=O)[C@H](Cc2ccc(O)cc2)NC(=O)CN2CCN(CC(=O)O)CCN(CC(=O)O)CCN(CC(=O)O)CC2)C(=O)N2C[C@H](O)C[C@H]2C(=O)N[C@@H](Cc2ccc(O)c(Cl)c2)C(=O)NCC(=O)N[C@@H](CC(C)C)C(=O)N1)C(=O)N[C@@H](CCC(N)=O)C(=O)NCc1ccc(CNC(=S)Nc2ccc3c(c2)C(=O)OC32c3ccc(O)cc3Oc3cc(O)ccc32)cc1 [Compound 17, GdDOTA-cyclic-FBP-p-XD-FITC] ({DOTA}-Y[dE]C[Hyp][Tyr(3-Cl)]GLCYIQ-X1; disulfide 3-8) | binding to the fibrin |  |
|  |  | CC(O)CN1CCN(CC(=O)[O-])CCN(CC(=O)[O-])CCN(CC(=O)[O-])CC1.[Gd+3] (stereo not drawn) [GdHP-DO3A, reference compound] | distributed equally between the clotted fibrin and the supernatant |  |
|  |  | O=C([O-])CN1CCN(CC(=O)O)CCN(CC(=O)[O-])CCN(CC(=O)O)CC1.[64Cu+2] [^64CuDOTA] |  | distributed equally in the clot (bottom of tube B) and in the liquid above the clot |
